In PubChem BioAssay (NCI):
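Five compound concentrations were applied to cells in 96-well plates for 48 hours; endpoints were derived by simple linear interpolation of the resulting dose-response curve. TGI is the concentration that stops growth completely.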

Legend:
Assay in all cases: DTP human tumour cell line panel, 48 h
HCT-116 colon = system: HCT-116 colon
NCI-H23 lung = system: NCI-H23 lung
SNB-78 CNS = system: SNB-78 CNS
SR leukemia = system: SR leukemia
TK-10 renal = system: TK-10 renal
K-562 leukemia = system: K-562 leukemia
HCC-2998 colon = system: HCC-2998 colon
SW-620 colon = system: SW-620 colon
COLO 205 colon = system: COLO 205 colon
MALME-3M melanoma = system: MALME-3M melanoma
UO-31 renal = system: UO-31 renal
KM20L2 colon = system: KM20L2 colon
EKVX NSCLC = system: EKVX NSCLC
NCI-H226 lung = system: NCI-H226 lung
NCI-H460 lung = system: NCI-H460 lung
NCI-H522 lung = system: NCI-H522 lung
DMS 273 small cell lung = system: DMS 273 small cell lung
LOX IMVI melanoma = system: LOX IMVI melanoma
MOLT-4 leukemia = system: MOLT-4 leukemia
OVCAR-8 ovarian = system: OVCAR-8 ovarian
SK-MEL-5 melanoma = system: SK-MEL-5 melanoma
IGROV1 ovarian = system: IGROV1 ovarian
UACC-257 melanoma = system: UACC-257 melanoma
A498 renal = system: A498 renal
SN12C renal = system: SN12C renal
SF-295 CNS = system: SF-295 CNS
M19-MEL melanoma = system: M19-MEL melanoma
RXF 393 renal = system: RXF 393 renal
786-0 renal = system: 786-0 renal
SF-539 CNS = system: SF-539 CNS
A549 NSCLC = system: A549 NSCLC
DMS 114 small cell lung = system: DMS 114 small cell lung
HOP-92 NSCLC = system: HOP-92 NSCLC
HL-60(TB) leukemia = system: HL-60(TB) leukemia
OVCAR-3 ovarian = system: OVCAR-3 ovarian
ACHN renal = system: ACHN renal
LXFL 529 NSCLC = system: LXFL 529 NSCLC
M14 melanoma = system: M14 melanoma
SF-268 CNS = system: SF-268 CNS
OVCAR-4 ovarian = system: OVCAR-4 ovarian
UACC-62 melanoma = system: UACC-62 melanoma
RXF-631 renal = system: RXF-631 renal
DLD-1 colon = system: DLD-1 colon
SNB-75 CNS = system: SNB-75 CNS
CAKI-1 renal = system: CAKI-1 renal
U251 CNS = system: U251 CNS
SNB-19 CNS = system: SNB-19 CNS
HOP-18 NSCLC = system: HOP-18 NSCLC
SK-MEL-28 melanoma = system: SK-MEL-28 melanoma
RPMI-8226 leukemia = system: RPMI-8226 leukemia
HOP-62 NSCLC = system: HOP-62 NSCLC
SK-OV-3 ovarian = system: SK-OV-3 ovarian
KM12 colon = system: KM12 colon
XF 498 CNS = system: XF 498 CNS
HT29 colon = system: HT29 colon

Cc1ccc(NC(=O)COC(=O)c2cccc3c(=O)c4ccccc4[nH]c23)cc1
TGI (HCT-116 colon): > 100 µM | TGI (NCI-H23 lung): 74.3 µM | TGI (SNB-78 CNS): > 100 µM | TGI (SR leukemia): 65.1 µM | TGI (TK-10 renal): > 100 µM | TGI (K-562 leukemia): > 100 µM | TGI (HCC-2998 colon): > 100 µM | TGI (SW-620 colon): > 100 µM | TGI (COLO 205 colon): 77.9 µM | TGI (MALME-3M melanoma): > 100 µM | TGI (UO-31 renal): 42.9 µM | TGI (KM20L2 colon): > 100 µM | TGI (EKVX NSCLC): > 100 µM | TGI (NCI-H226 lung): 96.7 µM | TGI (NCI-H460 lung): > 100 µM | TGI (NCI-H522 lung): 59.9 µM | TGI (DMS 273 small cell lung): 94.9 µM | TGI (LOX IMVI melanoma): 60 µM | TGI (MOLT-4 leukemia): > 100 µM | TGI (OVCAR-8 ovarian): > 100 µM | TGI (SK-MEL-5 melanoma): > 100 µM | TGI (IGROV1 ovarian): > 100 µM | TGI (UACC-257 melanoma): > 100 µM | TGI (A498 renal): 92.4 µM | TGI (SN12C renal): > 100 µM | TGI (SF-295 CNS): > 100 µM | TGI (M19-MEL melanoma): > 100 µM | TGI (RXF 393 renal): 60.5 µM | TGI (786-0 renal): > 100 µM | TGI (SF-539 CNS): > 100 µM | TGI (A549 NSCLC): > 100 µM | TGI (DMS 114 small cell lung): > 100 µM | TGI (HOP-92 NSCLC): > 100 µM | TGI (HL-60(TB) leukemia): > 100 µM | TGI (OVCAR-3 ovarian): > 100 µM | TGI (ACHN renal): > 100 µM | TGI (LXFL 529 NSCLC): > 100 µM | TGI (M14 melanoma): > 100 µM | TGI (SF-268 CNS): > 100 µM | TGI (OVCAR-4 ovarian): > 100 µM | TGI (UACC-62 melanoma): > 100 µM | TGI (RXF-631 renal): > 100 µM | TGI (DLD-1 colon): > 100 µM | TGI (SNB-75 CNS): 94.9 µM | TGI (CAKI-1 renal): > 100 µM | TGI (U251 CNS): > 100 µM | TGI (SNB-19 CNS): > 100 µM | TGI (HOP-18 NSCLC): > 100 µM | TGI (SK-MEL-28 melanoma): > 100 µM | TGI (RPMI-8226 leukemia): > 100 µM | TGI (HOP-62 NSCLC): > 100 µM | TGI (SK-OV-3 ovarian): 92 µM | TGI (KM12 colon): > 100 µM | TGI (XF 498 CNS): 78.3 µM | TGI (HT29 colon): > 100 µM
